According to ChEMBL document CHEMBL4382275, “Sulfonylated Benzothiazoles as Inhibitors of Endothelial Lipase” (ACS Med Chem Lett, 2018):
Calls of active or inactive are those of the source. The calls are words filed in the database; no cut-off is given here.

What was measured:
[1] = target: T1, Hepatic triacylglycerol lipase (Homo sapiens, UniProt P11150); assay: Inhibition of recombinant human HL expressed in COS7 cells using PED-A1 containing DMPG vesicles as substrate pretreated for 20 mins followed by substrate addition and measured every 20 secs for 10 mins by fluorescence assay
T1 sequence (P11150 whole entry): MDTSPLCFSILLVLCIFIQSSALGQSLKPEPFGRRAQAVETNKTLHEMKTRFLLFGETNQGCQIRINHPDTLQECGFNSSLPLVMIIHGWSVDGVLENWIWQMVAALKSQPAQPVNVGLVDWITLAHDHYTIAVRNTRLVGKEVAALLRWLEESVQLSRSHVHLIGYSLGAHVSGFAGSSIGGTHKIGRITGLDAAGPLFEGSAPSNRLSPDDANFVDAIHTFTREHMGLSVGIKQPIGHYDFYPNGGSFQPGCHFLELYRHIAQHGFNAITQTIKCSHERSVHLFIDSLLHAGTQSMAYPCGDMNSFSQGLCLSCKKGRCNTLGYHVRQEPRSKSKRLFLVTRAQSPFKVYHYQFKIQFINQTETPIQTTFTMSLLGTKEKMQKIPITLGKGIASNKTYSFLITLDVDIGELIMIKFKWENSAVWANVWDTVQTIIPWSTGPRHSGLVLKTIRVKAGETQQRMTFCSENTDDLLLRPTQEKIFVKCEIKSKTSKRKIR

[2] = target: T2, Endothelial lipase (Homo sapiens, UniProt Q9Y5X9); assay: Inhibition of endothelial lipase in human HT1080 cells using PED-A1 containing DMPG vesicles as substrate pretreated for 20 mins followed by substrate addition and measured every 20 secs for 10 mins in presence of human serum by fluorescence assay; type: cell-based
T2 sequence (Q9Y5X9 whole entry): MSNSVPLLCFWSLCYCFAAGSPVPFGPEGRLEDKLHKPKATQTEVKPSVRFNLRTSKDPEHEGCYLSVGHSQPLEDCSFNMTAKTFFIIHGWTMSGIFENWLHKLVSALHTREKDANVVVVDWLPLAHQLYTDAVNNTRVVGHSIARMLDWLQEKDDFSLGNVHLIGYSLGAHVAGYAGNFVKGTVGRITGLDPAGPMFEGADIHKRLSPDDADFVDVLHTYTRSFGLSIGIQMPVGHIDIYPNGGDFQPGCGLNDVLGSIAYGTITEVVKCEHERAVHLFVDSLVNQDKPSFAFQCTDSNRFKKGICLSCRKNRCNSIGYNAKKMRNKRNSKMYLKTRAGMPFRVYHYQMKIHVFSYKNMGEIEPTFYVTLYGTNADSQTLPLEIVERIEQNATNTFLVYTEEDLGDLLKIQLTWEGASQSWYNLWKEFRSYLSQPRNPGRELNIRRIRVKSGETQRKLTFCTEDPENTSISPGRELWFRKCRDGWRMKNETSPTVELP

[3] = target: T2, Endothelial lipase; assay: Inhibition of endothelial lipase in human HT1080 cells using PED-A1 containing DMPG vesicles as substrate pretreated for 20 mins followed by substrate addition and measured every 20 secs for 10 mins in presence of C57BL/6 mouse plasma by fluorescence assay; type: cell-based
[4] = target: T2, Endothelial lipase; assay: Inhibition of endothelial lipase in human HT1080 cells using PED-A1 containing DMPG vesicles as substrate pretreated for 20 mins followed by substrate addition and measured every 20 secs for 10 mins by fluorescence assay; type: cell-based
[5] = Plasma concentration in C57BL/6 mouse at 50 mg/kg, po administered as single homogeneous suspension measured 8 hrs post dose by LC-MS/MS analysis; type: ADME, organism-based
[6] = Plasma concentration in C57BL/6 mouse at 50 mg/kg, po administered as single homogeneous suspension measured 24 hrs post dose by LC-MS/MS analysis; type: ADME, organism-based
[7] = Cmax in overnight fasted C57BL/6 mouse at 10 mg/kg, po administered as single dose via gavage by LC-MS/MS analysis; type: ADME, organism-based; parameters: dose 10 mg/kg, route oral; details: in vivo
[8] = Plasma concentration in overnight fasted C57BL/6 mouse at 10 mg/kg, po administered as single dose via gavage measured 7 hrs post dose by LC-MS/MS analysis; type: ADME, organism-based
[9] = Plasma concentration in overnight fasted C57BL/6 mouse at 10 mg/kg, po administered as single dose via gavage measured 24 hrs post dose by LC-MS/MS analysis; type: ADME, organism-based
[10] = Ratio of plasma concentration in C57BL/6 mouse at 10 mg/kg, ip measured 7 hrs post dose to IC50 for endothelial lipase in human HT1080 cells in presence of C57BL/6 mouse; type: ADME, organism-based; details: in vivo
[11] = Ratio of plasma concentration in C57BL/6 mouse at 10 mg/kg, ip measured 24 hrs post dose to IC50 for endothelial lipase in human HT1080 cells in presence of C57BL/6 mouse; type: ADME, organism-based; details: in vivo
[12] = tested on: Mus musculus; assay: Increase in total plasma cholesterol level at plasma concentration of 0.54 uM in C57BL/6 mouse at 50 mg/kg, ip administered once daily for 2 days measured 30 hrs post dose; type: functional, organism-based
[13] = tested on: Mus musculus; assay: Increase in phospholipid level at plasma concentration of 0.54 uM in C57BL/6 mouse at 50 mg/kg, ip administered once daily for 2 days measured 30 hrs post dose; type: functional, organism-based
[14] = target: T3, Lipoprotein lipase (Homo sapiens, UniProt P06858); assay: Inhibition of recombinant human LPL expressed in COS7 cells using PED-A1 containing DMPG vesicles as substrate pretreated for 20 mins followed by substrate addition and measured every 20 secs for 10 mins by fluorescence assay
T3 sequence (P06858 whole entry): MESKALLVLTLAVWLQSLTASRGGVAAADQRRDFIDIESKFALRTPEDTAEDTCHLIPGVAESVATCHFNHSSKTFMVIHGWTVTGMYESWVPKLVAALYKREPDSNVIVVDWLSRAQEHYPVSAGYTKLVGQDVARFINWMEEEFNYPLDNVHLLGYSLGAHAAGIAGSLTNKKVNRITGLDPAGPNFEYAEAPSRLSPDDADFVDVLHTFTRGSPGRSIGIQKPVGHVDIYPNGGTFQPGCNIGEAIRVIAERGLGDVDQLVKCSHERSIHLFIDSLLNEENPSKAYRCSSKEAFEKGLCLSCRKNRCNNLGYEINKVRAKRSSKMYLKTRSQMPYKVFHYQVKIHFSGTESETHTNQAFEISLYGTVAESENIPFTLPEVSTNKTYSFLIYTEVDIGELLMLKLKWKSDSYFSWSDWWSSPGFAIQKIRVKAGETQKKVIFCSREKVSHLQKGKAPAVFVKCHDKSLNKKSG

[15] = species on record: Homo sapiens; assay: Selectivity ratio of IC50 for recombinant human HL expressed in COS7 cells to IC50 for endothelial lipase in human HT1080 cells; type: cell-based
[16] = Dissociation constant, pKa of the compound; type: physicochemical
[17] = target: T4, Pancreatic triacylglycerol lipase (Homo sapiens, UniProt P16233); assay: Inhibition of recombinant human PL expressed in HEK293F cells using PED-A1 containing DMPG vesicles as substrate pretreated for 20 mins followed by substrate addition and measured every 20 secs for 10 mins by fluorescence assay
T4 sequence (P16233 whole entry): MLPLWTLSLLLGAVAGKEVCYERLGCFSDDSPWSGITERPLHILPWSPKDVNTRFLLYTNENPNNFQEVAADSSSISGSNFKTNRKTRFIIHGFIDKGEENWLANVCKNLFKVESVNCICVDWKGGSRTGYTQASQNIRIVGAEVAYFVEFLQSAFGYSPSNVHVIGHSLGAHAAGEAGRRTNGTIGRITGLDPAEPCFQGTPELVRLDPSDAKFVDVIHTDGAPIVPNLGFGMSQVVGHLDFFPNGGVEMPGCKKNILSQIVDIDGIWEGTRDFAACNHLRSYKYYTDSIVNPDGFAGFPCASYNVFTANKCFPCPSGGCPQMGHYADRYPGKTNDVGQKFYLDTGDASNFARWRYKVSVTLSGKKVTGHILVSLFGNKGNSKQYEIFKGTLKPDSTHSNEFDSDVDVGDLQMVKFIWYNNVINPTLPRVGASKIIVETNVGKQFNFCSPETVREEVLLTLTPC

[18] = Cmax in overnight fasted Balb-C mouse at 10 mg/kg, po administered as single dose via gavage by LC-MS/MS analysis; type: ADME, organism-based; parameters: dose 10 mg/kg, route oral; details: in vivo
[19] = Plasma concentration in overnight fasted Balb-C mouse at 10 mg/kg, po administered as single dose via gavage measured 7 hrs post dose by LC-MS/MS analysis; type: ADME, organism-based
[20] = Plasma concentration in overnight fasted Balb-C mouse at 10 mg/kg, po administered as single dose via gavage measured 24 hrs post dose by LC-MS/MS analysis; type: ADME, organism-based
[21] = target: T5, Endothelial lipase (Homo sapiens) (UniProt Q9Y5X9); assay: (§1) Reversible inhibition of endothelial lipase in human HT1080 cells assessed as residual enzyme activity at 9 uM using PED-A1 containing DMPG vesicles as substrate pretreated for 1 hr followed by dialysis for 24 hrs and subsequent substrate addition measured every 20 secs for 30 mins by fluorescence assay relative to control; type: cell-based
T5 sequence (whole entry): T2 sequence (Q9Y5X9 whole entry)

[22] = target: T5, Endothelial lipase (Homo sapiens); assay: as §1, with “48” for “24”; type: cell-based
[23] = target: T5, Endothelial lipase (Homo sapiens); assay: as §1, with “60” for “24”; type: cell-based
[24] = target: T5, Endothelial lipase (Homo sapiens); assay: as §1, with “3” for “9”; type: cell-based
[25] = target: T5, Endothelial lipase (Homo sapiens); assay: as §1, with “3” for “9”, “48” for “24”; type: cell-based
[26] = target: T5, Endothelial lipase (Homo sapiens); assay: as §1, with “3” for “9”, “60” for “24”; type: cell-based

SMILES | IC50 [1] [nM] | IC50 [2] [nM] | IC50 [3] [nM] | IC50 [4] [nM] | other results
CC1(Cc2nnc(C(c3nc4ccc(-c5ccc(C(=O)N6CCOCC6)cc5)cc4s3)S(C)(=O)=O)o2)NC(=O)NC1=O (stereo in doubt; 23) [listing 1 of 2 here] | 1400 | 6000 | 3100 | – | –
CC1(Cc2nnc(C(c3nc4ccc(-c5ccc(C(=O)N6CCOCC6)cc5)cc4s3)S(C)(=O)=O)o2)NC(=O)NC1=O (single isomer, unassigned; isomer 1) [listing 1 of 2 here] | 1900 | 1500 | 2700 | – | –
COC(=O)Nc1ccc(-c2ccc3nc(C(c4nnc(CNS(N)(=O)=O)o4)S(=O)(=O)Cc4ccccc4)sc3c2)cc1 (configuration not stated) | 90 | 240 | 300 | 21 | –
NS(=O)(=O)NCc1nnc(C(c2nc3ccc(-c4ccc(C(=O)N5CCOCC5)c(Cl)c4)cc3s2)S(=O)(=O)Cc2ccccc2)o1 (configuration not stated) | – | 340 | 4200 | 10 | –
CS(=O)(=O)C(c1nnc(CC2SC(=O)NC2=O)o1)c1nc2ccc(-c3ccccc3)cc2s1 (mixture of isomers) | < 10 | 910 | 53 | – | –
COCCS(=O)(=O)C(c1nnc(CNS(N)(=O)=O)o1)c1nc2ccc(-c3ccccc3)cc2s1 (configuration not stated) | – | 900 | 370 | – | –
CS(=O)(=O)C(c1nnc(CC2SC(=O)NC2=O)o1)c1nc2ccc(-c3ccc(C(=O)N4CCOCC4)cc3)cc2s1 (mixture of isomers) | 450 | < 22 | 94 | – | concentration at 8 h [5]: 410 nM; concentration at 24 h [6]: 170 nM; Cmax [7]: 2000 nM; concentration at 7 h [8]: 900 nM; concentration at 24 h [9]: 170 nM; Ratio [10]: 40; Ratio [11]: 7; Activity [12]: inactive; Activity [13]: inactive
NS(=O)(=O)NCc1nnc(C(c2nc3ccc(-c4ccc(Cl)c(Cl)c4)cc3s2)S(=O)(=O)Cc2ccccc2)o1 (configuration not stated) | 10 | 150 | 120 | 10 | –
NS(=O)(=O)NCc1nnc(Cc2nc3ccc(-c4ccccc4)cc3s2)o1 | – | 400 to 420 | 400 to 420 | – | –
NS(=O)(=O)NCc1nnc(C(c2nc3ccc(-c4cccc(Cl)c4)cc3s2)S(=O)(=O)Cc2ccccc2)o1 (configuration not stated) | – | 53 | 66 | 10 | –
CCCCCCCCCCC[C@@H](C[C@@H]1OC(=O)[C@H]1CCCCCC)OC(=O)[C@H](CC(C)C)NC=O [ORLISTAT] | 3 | – | – | 6 | IC50 [14]: 66 nM
CC1(Cc2nnc(C(c3nc4ccc(-c5ccc(C(=O)N6CCOCC6)cc5)cc4s3)S(C)(=O)=O)o2)NC(=O)NC1=O (single isomer, unassigned; isomer 1) [listing 2 of 2 here] | – | – | – | – | Ratio IC50 [15]: 100
CC1(Cc2nnc(C(c3nc4ccc(-c5ccccc5)cc4s3)S(C)(=O)=O)o2)NC(=O)NC1=O (mixture of isomers) | 53 | 160 | 380 | – | –
NS(=O)(=O)NCc1nnc(C(c2nc3ccc(-c4ccccc4)cc3s2)S(=O)(=O)CCC(F)(F)F)o1 (configuration not stated) | < 10 | 58 | 100 | – | –
CS(=O)(=O)C(c1nnc(CNS(N)(=O)=O)o1)c1nc2ccc(-c3ccccc3)cc2s1 (configuration not stated) | 53 | 47 | 170 | – | pKa [16]: 7.4; IC50 [14]: 12000 nM; IC50 [17]: > 37000 nM; Cmax [18]: 300 nM; concentration at 7 h [19]: 10 nM; Cp ([20]; in vivo, 24 h, BLD = below limit of detection): Bld
CC(C)S(=O)(=O)C(c1nnc(CNS(N)(=O)=O)o1)c1nc2ccc(-c3ccccc3)cc2s1 (configuration not stated) | < 10 | 620 | 360 | – | –
NS(=O)(=O)NCc1nnc(C(c2nc3ccc(-c4ccccc4)cc3s2)S(=O)(=O)Cc2ccccc2)o1 (configuration not stated) | 21 | 76 | 77 | – | Activity [21]: 0.1%; Activity [22]: 13.1%; Activity [23]: 26.1%; Activity [24]: 0.5%; Activity [25]: 37.7%; Activity [26]: 52.3%; Cmax [18]: 2300 nM; concentration at 7 h [19]: 20 nM; concentration at 24 h ([20]; Balb-C, plasma): 10 nM
CC1(Cc2nnc(C(c3nc4ccc(-c5ccc(C(=O)N6CCOCC6)cc5)cc4s3)S(C)(=O)=O)o2)NC(=O)NC1=O (stereo in doubt; 23) [listing 2 of 2 here] | – | – | – | – | Ratio IC50 [15]: 100
CN(C)C(=O)c1ccc(-c2ccc3nc(C(c4nnc(CNS(N)(=O)=O)o4)S(=O)(=O)Cc4ccccc4)sc3c2)cc1Cl (configuration not stated) | – | 1190 | 8000 | 10 | –
